Patent US20130190169A1, “SYNERGISTIC FUNGICIDAL COMBINATION” (priority 2010, published 2013)

System: strain Mg Ref 1 of M. graminicola
Experiment: In vitro evaluation of the sensitivity level of M. graminicola towards epoxiconazole and folpet alone or in admixture (mycelial growth by optical density, 96-well microtitre plate, Wadley method)
Assay type: cell-based, Mycosphaerella graminicola
Settings: Zymoseptoria tritici, 168 h, fungicide used alone, 7 days, 19° C., OD 405 nm
Description: The Wadley method is well-known method for determining whether synergy exists. In the Wadley method, synergistic activity is determined from dose response curves. With this method, the efficacy of the active ingredient (“a.i.”) is determined by comparing the degree of fungal attack on treated plants with that on untreated, similarly inoculated and incubated check plants. Each a.i. is generally tested at multiple (e.g., 6) concentrations, and dose response curves are generated. The dose response curves are used to establish the EC50 (i.e., the effective concentration of a.i. providing 50% disease control) of the individual compounds as well as of the combinations (EC50observed). The experimentally found values of the mixture at a given weight ratio are compared ith the values that would have been found were only a complementary efficacy of the components was present (EC50 (A+B)expected). The EC50 (A+B)expected is generally calculated according to Wadley (Levi et al., EPPO-Bulletin 16, 1986, 651-657) or (Wadley, F. M., U.S. Dep. Agric., Res. Adm., Bur. Entomol. And Plant Quar. ET-223, 1945, 8) as follows:
EC50(A+B)expected−(a+b)/[(a/EC50(A)observed)+b/EC50(B)observed)] […]
The degree of mycelial growth in the liquid medium was assessed by measuring the optical density of the wells containing the spore suspensions and fungicide concentrations. […]

Q: For `Fc1ccc([C@]2(Cn3cncn3)O[C@H]2c2ccccc2Cl)cc1` (racemic) [Epoxiconazole, (2RS;3SR)-1-[3-(2-chlorophenyl)-2,3-epoxy-2-(4-fluorophenyl)propyl]-1H-1,2,4-triazole], which EC50 is on record?
A: 0.01 µg/mL

Q: For `O=C1c2ccccc2C(=O)N1SC(Cl)(Cl)Cl` [Folpet, N-(trichloromethanesulfenyl)phthalimide], which EC50 is on record?
A: 2.39 µg/mL
